# Target: PD-1/PD-L1 interaction (Homo sapiens (Human), UniProt Q9NZQ7)
# Experiment: PD1/PD-L1 HTRF assay (Cisbio kit), inhibition of PD-1/PD-L1 interaction
# Format: binding
# Conditions: for IC50 / IC50 value: HTRF, inhibition of PD-1/PD-L1 interaction, 4PL fit; for inhibition to PD-1/PD-L1 interaction (in words): HTRF assay
# Experimental: Briefly, 2 μL of the compound, 4 μL from a 25 nM Tagl-PD-L1 protein solution and 4 μL from a 250 nM Tag2-PD1 protein were added into a Cisbio's HTRF 96-well low volume white plate. Then, the plate was incubated for 15 minutes at room temperature. Next, 10 μL from pre-mixed anti-tag detection reagents (5 μL from 1X anti-Tagl-Eu^3+ and 5 μL from 1X anti-Tag2-XL665) were added and the sealed plate was incubated for 2 hours at room temperature. Finally, the plate sealer was removed, and measurements were taken using a HTRF® compatible reader. This protocol used 12 different concentrations of each compound where the maximum and minimum assay concentrations are 10,000 nM and 0.001 nM respectively.
# To calculate ΔF/ΔFmax, first the HTRF ratio is calculated as follows;
# A multiplication factor of 10000 factor was used to not deal with decimal values that improves data accuracy during calculation. The AR ratio indicating “specific signal” of the compound disrupting the PD-1/PD-L1 interaction was calculated by subtracting background HTRF ratio (negative DMSO control in our work) from each compound (sample) HTRF ratio as follows; ΔR=HTRF ratio (sample)−HTRF ratio (background)
# Next, data normalization was done to minimize variation in values on different days, different plate reader instruments, or if the assay was done by different individuals. The normalization was done with respect to the background HTRF ratio and was calculated as follows;
# Finally, the ΔF/ΔFmax ratio was calculated to enable comparison of values between multiple experiments.
# [formula] wherein ΔF max is taken as the ΔF of the positive DMSO control in the assay.
# The IC50 value for PD-1/PD-L1 inhibition was determined by analyzing the log of the concentration—response curves to fit a sigmoid curve with four-parameter logistic (4PL) regression using the GraphPad Prism Software version 8.3.0 for Windows, GraphPad Software, La Jolla California USA, www.graphpad.com. Following equation defines the regression curve.
# [formula] wherein X=Log of concentration, Y=Response ΔF/ΔFmax, Top and Bottom=Plateaus in same units as Y, LogIC50=Same log units as X, HillSlope=Slope factor or Hill Slope, Unitless. Using the above equation, LogIC50, is calculated to obtain the IC50 value for each compound. The HTRF_IC50_Data.xlsx data file with all replicates is provided as a Supporting File for use in GraphPad Prism Software to calculate IC50 values.
# Sequence of PD-1/PD-L1 interaction (Q9NZQ7 19-238): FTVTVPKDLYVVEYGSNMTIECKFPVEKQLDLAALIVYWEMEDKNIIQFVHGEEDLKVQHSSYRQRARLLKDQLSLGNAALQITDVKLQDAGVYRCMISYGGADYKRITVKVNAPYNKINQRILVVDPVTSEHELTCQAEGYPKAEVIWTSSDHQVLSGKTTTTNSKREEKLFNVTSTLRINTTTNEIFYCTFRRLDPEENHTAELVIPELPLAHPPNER
inhibition to PD-1/PD-L1 interaction (in words),SMILES,IC50,IC50 value
–,COc1cc(OCc2cccc(-c3ccc4c(c3)OCCO4)c2C)cc(OC)c1CN[C@H](CO)C(=O)O [Compound 4b],340 nM,–
no/poor inhibition,"COc1cc(OCc2cccc(-c3ccccc3)c2C)cc(OC)c1CNC(CC(F)(F)F)c1ccccc1 (stereo not shown) [Compound 4c, N-(2,6-dimethoxy-4-((2-methyl-[1,1′-biphenyl]-3-yl)methoxy)benzyl)-3,3,3-trifluoro-1-phenylpropan-1-amine]",–,no inhibition
no/poor inhibition,"COc1cc(OCc2cccc(-c3ccccc3)c2C)cc(OC)c1CN1CCC[C@H](C(=O)O)C1 [Compound 4e, (S)-1-(2,6-dimethoxy-4-((2-methyl-[1,1′-biphenyl]-3-yl)methoxy)benzyl)piperidine-3-carboxylic acid]",1260 nM,–

SMILES,inhibition to PD-1/PD-L1 interaction (in words),IC50,IC50 value
"C#C[C@]1(O)CC[C@H]2[C@@H]3[C@H](C)CC4=CC(=O)CCC4[C@H]3CC[C@@]21C (stereo partly drawn) [Compound 4d, (7R,8R,9S,13S,14S,17R)-17-ethynyl-17-hydroxy-7,13-dimethyl-1,2,6,7,8,9,10,11,12,13,14,15,16,17-tetradecahydro-3H-cyclopenta[a]phenanthren-3-one]",no/poor inhibition,–,no inhibition

# Reference: patent US12448359B2, “Compounds with immunomodulatory activity and therapeutic uses thereof” (Purdue Research Foundation, priority 2020, dated 2025)
